EC50 and IC50 data for 27 molecules are collected here from patent US10081631B2, “2-(1H-indazol-3-yl)-1H-imidazo[4,5-C]pyridine and therapeutic uses thereof” (Samumed, LLC, priority 2014, dated 2018).

Assay [1] deals with primary human fibroblasts derived from IPF patients (LL29 cells). Kind of assay: Inhibition of fibrosis: TGF-β1-treated primary human fibroblasts from IPF patients (LL29), αSMA staining. Format: cell-based. The conditions noted are these: Fibroblast, 96 h, TGF-β1 20 ng/mL, 4 days, % αSMA-positive cells. In a few lines: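 […] (0.1% DMSO) on LL29 cells in F12 with 1% FBS, with TGF-β1 (20 ng/mL) added 1 h after plating; 4 days at 37 °C. SYTOX-positive dead cells were excluded and the % αSMA-positive cells was imaged, normalized to TGF-β1/DMSO wells, triplicates; EC50 by non-linear regression.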

The subject of assay [2] is Wnt activity (Sp5-Luc reporter, SW480 colon carcinoma cells). Briefly: Screening assay for Wnt activity: Sp5-Luc reporter gene assay in SW480 cells. It counts as cell-based. The conditions noted are these: Homo sapiens, 42 h incubation, luminescence. The gist of the method: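 IC50 values come from variable-slope four-parameter fits of luciferase signal normalized to DMSO wells. Stable Sp5-Luc reporter SW480 colon carcinoma cells were exposed to compounds in a 3-fold dilution series (source plates from 10 mM stock) for forty-two hours at 37 °C.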
For orientation: In a reporter assay the amount or activity of a reporter protein is the signal.

Molecules are shown by their SMILES.

In general, EC50 refers to the concentration that produces a half-maximal response. By IC50 is commonly meant the midpoint of a concentration-inhibition curve. A high value points to weaker potency in that assay. The molecule `CN1CCN(c2nccc3[nH]c(-c4n[nH]c5ccc(-c6cncnc6)cc45)nc23)CC1` [Compound 234, 4-(4-Methylpiperazin-1-yl)-2-(5-(pyrimidin-5-yl)-1H-indazol-3-yl)-1H-imidazo[4,5-c]pyridine] came in with an EC50 in assay [1] of 280 nM. In assay [2], 21 nM corresponded to half-maximal inhibition (IC50).
Taken in the same sequence, the figures for `Cc1ccncc1-c1ccc2[nH]nc(-c3nc4c(-c5ccsc5)nccc4[nH]3)c2c1` [Compound 239, 2-(5-(4-Methylpyridin-3-yl)-1H-indazol-3-yl)-4-(thiophen-3-yl)-1H-imidazo[4,5-c]pyridine] were 60 nM and 3 nM.
Taken in the same sequence, the figures for `CC(C)(C)C(=O)Nc1cncc(-c2ccc3[nH]nc(-c4nc5c(-c6ccsc6)nccc5[nH]4)c3c2)c1` [Compound 242, N-(5-(3-(4-(Thiophen-3-yl)-1H-imidazo[4,5-c]pyridin-2-yl)-1H-indazol-5-yl)pyridin-3-yl)pivalamide] were 1180 nM and 27.4 nM.
`O=C(Cc1ccccc1)Nc1cncc(-c2ccc3[nH]nc(-c4nc5c(-c6ccsc6)nccc5[nH]4)c3c2)c1` [Compound 244, 2-Phenyl-N-(5-(3-(4-(thiophen-3-yl)-1H-imidazo[4,5-c]pyridin-2-yl)-1H-indazol-5-yl)pyridin-3-yl)acetamide] showed a concentration for a half-maximal effect (EC50) in assay [1] of 203 nM. This molecule came in with a concentration for half-maximal inhibition (IC50) in assay [2] of 69.1 nM.
Turning to `O=C(Nc1cncc(-c2ccc3[nH]nc(-c4nc5c(-c6ccsc6)nccc5[nH]4)c3c2)c1)c1ccccc1` [Compound 245, N-(5-(3-(4-(Thiophen-3-yl)-1H-imidazo[4,5-c]pyridin-2-yl)-1H-indazol-5-yl)pyridin-3-yl)benzamide], the response in assay [1] was half-maximal at 17 nM (EC50). Besides, in assay [2], the IC50 amounted to 40 nM.
Taken in the same sequence, the figures for `CCCC(=O)Nc1cncc(-c2ccc3[nH]nc(-c4nc5c(-c6ccsc6)nccc5[nH]4)c3c2)c1` [Compound 251, N-(5-(3-(4-(Thiophen-3-yl)-1H-imidazo[4,5-c]pyridin-2-yl)-1H-indazol-5-yl)pyridin-3-yl)butyramide] were 18 nM and 1 nM.
Taken in the same sequence, the figures for `O=C(Nc1cncc(-c2ccc3[nH]nc(-c4nc5c(-c6ccsc6)nccc5[nH]4)c3c2)c1)C1CC1` [Compound 253, N-(5-(3-(4-(Thiophen-3-yl)-1H-imidazo[4,5-c]pyridin-2-yl)-1H-indazol-5-yl)pyridin-3-yl)cyclopropanecarboxamide] were 544 nM and 126 nM.
For `O=C(Nc1cncc(-c2ccc3[nH]nc(-c4nc5c(-c6ccsc6)nccc5[nH]4)c3c2)c1)C1CCCC1` [Compound 255, N-(5-(3-(4-(Thiophen-3-yl)-1H-imidazo[4,5-c]pyridin-2-yl)-1H-indazol-5-yl)pyridin-3-yl)cyclopentanecarboxamide], in that order: 1220 nM and 59.4 nM.
In the case of `c1ccc(CNCc2cncc(-c3ccc4[nH]nc(-c5nc6c(-c7ccsc7)nccc6[nH]5)c4c3)c2)cc1` [Compound 257, N-Benzyl-1-(5-(3-(4-(thiophen-3-yl)-1H-imidazo[4,5-c]pyridin-2-yl)-1H-indazol-5-yl)pyridin-3-yl)methanamine], the response in assay [1] was half-maximal at 9 nM (EC50). In addition, it took 7 nM to reach half-maximal inhibition in assay [2] (IC50).
For `CCNCc1cncc(-c2ccc3[nH]nc(-c4nc5c(-c6ccoc6)nccc5[nH]4)c3c2)c1` [Compound 266, N-((5-(3-(4-(Furan-3-yl)-1H-imidazo[4,5-c]pyridin-2-yl)-1H-indazol-5-yl)pyridin-3-yl)methyl)ethanamine], in that order: 9 nM and 36 nM.
Taken in the same sequence, the figures for `CC(C)Nc1cncc(-c2ccc3[nH]nc(-c4nc5c(-c6ccoc6)nccc5[nH]4)c3c2)c1` [Compound 272, 5-(3-(4-(Furan-3-yl)-1H-imidazo[4,5-c]pyridin-2-yl)-1H-indazol-5-yl)-N-isopropylpyridin-3-amine] were 9 nM and less than 1 nM.
Take `CCCCC(=O)Nc1cncc(-c2ccc3[nH]nc(-c4nc5c(-c6ccoc6)nccc5[nH]4)c3c2)c1` [Compound 278, N-(5-(3-(4-(Furan-3-yl)-1H-imidazo[4,5-c]pyridin-2-yl)-1H-indazol-5-yl)pyridin-3-yl)pentanamide]: in assay [1], the 50% effective concentration (EC50) worked out at 291 nM. Moreover, the IC50 in assay [2] was 15 nM.
Taken in the same sequence, the figures for `O=C(Nc1cncc(-c2ccc3[nH]nc(-c4nc5c(-c6ccoc6)nccc5[nH]4)c3c2)c1)C1CCC1` [Compound 280, N-(5-(3-(4-(Furan-3-yl)-1H-imidazo[4,5-c]pyridin-2-yl)-1H-indazol-5-yl)pyridin-3-yl)cyclobutanecarboxamide] were 1240 nM and 27.9 nM.
Taken in the same sequence, the figures for `c1cc2[nH]c(-c3n[nH]c4ccc(-c5cncc(CNCC6CCCC6)c5)cc34)nc2c(-c2ccoc2)n1` [Compound 284, 1-Cyclopentyl-N-((5-(3-(4-(furan-3-yl)-1H-imidazo[4,5-c]pyridin-2-yl)-1H-indazol-5-yl)pyridin-3-yl)methyl)methanamine] were 9 nM and greater than 10000 nM.
Taken in the same sequence, the figures for `CCC(=O)Nc1cncc(-c2ccc3[nH]nc(-c4nc5c(-c6cccs6)nccc5[nH]4)c3c2)c1` [Compound 287, N-(5-(3-(4-(Thiophen-2-yl)-1H-imidazo[4,5-c]pyridin-2-yl)-1H-indazol-5-yl)pyridin-3-yl)propionamide] were 62 nM and 10 nM.
For `CN(C)c1cncc(-c2ccc3[nH]nc(-c4nc5c(-c6cccs6)nccc5[nH]4)c3c2)c1` [Compound 293, N,N-Dimethyl-5-(3-(4-(thiophen-2-yl)-1H-imidazo[4,5-c]pyridin-2-yl)-1H-indazol-5-yl)pyridin-3-amine], it took 36 nM to reach a half-maximal effect in assay [1] (EC50). The molecule also had an IC50 in assay [2] of 9 nM.
`CC(C)C(=O)Nc1cncc(-c2ccc3[nH]nc(-c4nc5c(-c6cccs6)nccc5[nH]4)c3c2)c1` [Compound 295, N-(5-(3-(4-(Thiophen-2-yl)-1H-imidazo[4,5-c]pyridin-2-yl)-1H-indazol-5-yl)pyridin-3-yl)isobutyramide]: in assay [1], the EC50 was 186 nM. The molecule also displayed an IC50 in assay [2] of 30.8 nM.
In assay [1], `CN(C)Cc1cncc(-c2ccc3[nH]nc(-c4nc5c(-c6cccs6)nccc5[nH]4)c3c2)c1` [Compound 299, N,N-Dimethyl-1-(5-(3-(4-(thiophen-2-yl)-1H-imidazo[4,5-c]pyridin-2-yl)-1H-indazol-5-yl)pyridin-3-yl)methanamine] displayed an EC50 of 608 nM. In addition, in assay [2], it took 332 nM to reach half-maximal inhibition (IC50).
Taken in the same sequence, the figures for `O=C(Nc1cncc(-c2ccc3[nH]nc(-c4nc5c(-c6cccs6)nccc5[nH]4)c3c2)c1)C1CC1` [Compound 305, N-(5-(3-(4-(Thiophen-2-yl)-1H-imidazo[4,5-c]pyridin-2-yl)-1H-indazol-5-yl)pyridin-3-yl)cyclopropanecarboxamide] were 22 nM and 4 nM.
Taken in the same sequence, the figures for `O=C(Nc1cncc(-c2ccc3[nH]nc(-c4nc5c(-c6cccs6)nccc5[nH]4)c3c2)c1)C1CCCC1` [Compound 307, N-(5-(3-(4-(Thiophen-2-yl)-1H-imidazo[4,5-c]pyridin-2-yl)-1H-indazol-5-yl)pyridin-3-yl)cyclopentanecarboxamide] were 422 nM and 34.8 nM.
Taken in the same sequence, the figures for `FC1(F)CCN(Cc2cncc(-c3ccc4[nH]nc(-c5nc6c(-c7cccs7)nccc6[nH]5)c4c3)c2)C1` [Compound 311, 2-(5-(5-((3,3-Difluoropyrrolidin-1-yl)methyl)pyridin-3-yl)-1H-indazol-3-yl)-4-(thiophen-2-yl)-1H-imidazo[4,5-c]pyridine] were 83 nM and 320 nM.
Take `CC(C)CC(=O)Nc1cncc(-c2ccc3[nH]nc(-c4nc5c(-c6ccc(F)s6)nccc5[nH]4)c3c2)c1` [Compound 314, N-(5-(3-(4-(5-Fluorothiophen-2-yl)-1H-imidazo[4,5-c]pyridin-2-yl)-1H-indazol-5-yl)pyridin-3-yl)-3-methylbutanamide]: the EC50 in assay [1] worked out at 665 nM. This molecule also gave an IC50 in assay [2] of 44.7 nM.
In assay [1], `CC(C)(C)C(=O)Nc1cncc(-c2ccc3[nH]nc(-c4nc5c(-c6ccc(F)s6)nccc5[nH]4)c3c2)c1` [Compound 320, N-(5-(3-(4-(5-Fluorothiophen-2-yl)-1H-imidazo[4,5-c]pyridin-2-yl)-1H-indazol-5-yl)pyridin-3-yl)pivalamide] returned an EC50 of 115 nM. For the same molecule, the half-maximal inhibitory concentration (IC50) in assay [2] is 5.2 nM.
Taken in the same sequence, the figures for `Fc1ccc(-c2nccc3[nH]c(-c4n[nH]c5ccc(-c6cncc(CN7CCCC7)c6)cc45)nc23)s1` [Compound 326, 4-(5-Fluorothiophen-2-yl)-2-(5-(5-(pyrrolidin-1-ylmethyl)pyridin-3-yl)-1H-indazol-3-yl)-1H-imidazo[4,5-c]pyridine] were 940 nM and 284 nM.
Regarding `O=C(Nc1cncc(-c2ccc3[nH]nc(-c4nc5c(-c6ccc(F)s6)nccc5[nH]4)c3c2)c1)C1CCC1` [Compound 332, N-(5-(3-(4-(5-Fluorothiophen-2-yl)-1H-imidazo[4,5-c]pyridin-2-yl)-1H-indazol-5-yl)pyridin-3-yl)cyclobutanecarboxamide], the EC50 in assay [1] came out at 363 nM. In assay [2], this molecule displayed a 50% inhibitory concentration (IC50) of 32.6 nM.
Taken in the same sequence, the figures for `Cc1ccc(-c2nccc3[nH]c(-c4n[nH]c5ccc(-c6cncc(N)c6)cc45)nc23)s1` [Compound 341, 5-(3-(4-(5-Methylthiophen-2-yl)-1H-imidazo[4,5-c]pyridin-2-yl)-1H-indazol-5-yl)pyridin-3-amine] were 9 nM and 1.3 nM.
For `Cc1ccc(-c2nccc3[nH]c(-c4n[nH]c5ccc(-c6cncc(NC(=O)C(C)C)c6)cc45)nc23)s1` [Compound 347, N-(5-(3-(4-(5-Methylthiophen-2-yl)-1H-imidazo[4,5-c]pyridin-2-yl)-1H-indazol-5-yl)pyridin-3-yl)isobutyramide], in that order: 38 nM and 7 nM.
